Data as given in patent US20230024119A1, “COMBINED USE OF SODIUM TRANS-[TETRACHLORIDOBIS(1H-INDAZOLE)RUTHENATE(III)] AND ETOMOXIR FOR TREATING CANCERS” (Bold Therapeutics, Inc., priority 2019, published 2023).

How the values were obtained:
KP1339-resistant cells = conditions: upon KP1339 treatment
Protocol: (§1) (also referred to herein as KP1339 or BOLD-100 or IT139). […] Lipid storage compartments (lipid droplets) were visualized fluorescently with Bodipy 493/503. Utilizing specific pharmacological inhibitors, the role of altered lipid metabolism components in KP1339 resistance was dissected. Mitochondrial oxygen consumption rate (OCR) and extracellular acidification rate (ECAR) were assessed by Seahorse XF analysis. Lipidomics and consecutive proteomics analysis were used to further characterize the resistance phenotype.

sensitive HCT116 cells = tested on: sensitive HCT116 cells
Protocol: as §1

[1] = tested on: HCT116 and Capan1 cell models with acquired KP1339 resistance; assay: Sensitivity of KP1339-resistant cell models to lipid-modulating agents; format: cell-based
Protocol: as §1

Row | Compound | amount of Compound A present in the lyophilized product (cooling the solution during the formulation process) | degradation in water (in water) | mitochondrial oxygen consumption rate (OCR) (KP1339-resistant cells) | extracellular acidification rate (ECAR) (sensitive HCT116 cells; Seahorse Mito Stress Test, sensitive HCT116 cells) | mitochondrial oxygen consumption rate (OCR) (sensitive HCT116 cells; upon KP1339 treatment, parental cells) | sensitivity towards lipid-modulating agents [1]
1 | [Cl][Ru]([Cl])([Cl])[Cl].[Na+].c1ccc2[nH]ncc2c1.c1ccc2[nH]ncc2c1 [KP1339, Sodium trans-[tetrachloridobis(1H-indazole)ruthenate(III)]] | greatly reduce the amount of Compound A | can degrade in water to Compound A | stayed unchanged in resistant cells | massively reduced ECAR | reduced in parental | 
2 | CCC/C=C/C/C=C/C=C/C=N/NN=O [triacsin C] |  |  |  |  |  | hypersensitive
3 | CCCCCCCCCCC[C@@H](C[C@@H]1OC(=O)[C@H]1CCCCCC)OC(=O)[C@H](CC(C)C)NC=O [orlistat] |  |  |  |  |  | hypersensitive
